Experiment: gradient 5% acetonitrile 3 min, to 50% in 2 min, to 85% in 15 min, held 3 min, 100 µL/min
Conditions: column: Zorbax Extend-C18 2.1 x 50 mm; eluents: water / acetonitrile, 0.1% formic acid
Outline: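 Retention times of pure standards were taken from adduct peaks that were selected by computer and manually inspected. Over 3 months, mixtures of ~100 molecules were run by HPLC–quadrupole time-of-flight mass spectrometry in positive and negative ionization mode. The Zorbax Extend-C18 column (2.1 × 50 mm, 1.8 μm) ran at 100 μL/min in water and acetonitrile, each containing 0.1% formic acid, with 40 μL dead volume and 900 μL dwell volume.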

SMILES | RP-LC retention time [s]
CCn1c(=O)sc2cc(S(=O)(=O)N3CCC(C(=O)Nc4ccc(C)c(F)c4)CC3)ccc21 | 979
CCC(C)NC(=O)CC1CCN(C(=O)c2[nH]c(C)c(C(=O)OC(C)C)c2C)CC1 (centres undefined) | 775
COc1ccc(Cn2c(=O)c3sccc3n(Cc3nc(-c4cccc(OC)c4)no3)c2=O)cc1 | 962
Cc1ccc(-c2nnc(Cc3nc(-c4ccccc4)no3)o2)cc1C | 1090
CCn1nc(C)c(CCNC(=O)Cn2c3ccccc3c3cnn(C)c(=O)c32)c1C | 627
Cc1ccccc1-c1nc(-c2ccc3c(c2)nnn3CCN2CCOCC2)no1 | 706
CCc1noc(NC(C)=O)c1-c1ccc(C)c(S(=O)(=O)N2CCN(c3cc(C)ccc3C)CC2)c1 | 1130
CCOc1ccc(-c2noc(CN3N=NC4C(=O)N(c5ccc(CC)cc5)C(=O)C43)n2)cc1OC (centres undefined) | 1030
CCC(C)NC(=O)c1nc(-c2ccnc(N3CCCCCC3)c2)no1 (centres undefined) | 708
CCNC(=O)N1C[C@@H]2CCCN3CCC[C@@H]([C@H]23)[C@H]1CCCC(=O)NCC1CC1 | 569
Cc1cccc(S(=O)(=O)N2CCC(c3noc(-c4cccc(F)c4)n3)CC2)c1 | 1110
CCC(C)CC(=O)N1CCCN(C2=NS(=O)(=O)C(c3ccccc3)=C2C)CC1 (centres undefined) | 828
Cc1ccc(CNC(=O)c2ccc3c(c2)ncn3CCN2CCCC2)cc1C | 595
Cc1nn(C)c(C)c1S(=O)(=O)N1CC=C(c2cn(C)c3ncccc23)CC1 | 754
O=C(Cc1c(F)cccc1Cl)N1CCN(Cc2ccsc2)CC1 | 570
COc1ccc(NC(=O)c2ccc(-n3cnc(NC(=O)C4CC4)c3)cc2)cc1Cl | 780
COc1ccc(C(=O)N2CCC3(C2)C(=O)N(C)c2ccccc23)c(OC)c1 (centres undefined) | 759
COc1ccc2c(c1)-c1nc(NC(=O)c3cccc(F)c3)sc1CC2 | 1120
CC1(C)CC(=O)C2=C(C1)N(CC1CCCO1)C(=O)C2(NC(=O)c1ccc(F)cc1)C(F)(F)F (centres undefined) | 929
Cc1cc2c(=O)n(CC(=O)Nc3cccc(C(F)(F)F)c3)ccc2s1 | 886
CCN1CCN(C(=O)CCC(=O)N2CCc3c(c(C(=O)N4CCCC4)nn3C)C2)CC1 | 563
COc1ccc(-c2noc(Cn3nc(-c4cccc(OC)c4)ccc3=O)n2)cc1 | 974
CCCn1cnc2c(-c3ccccc3)csc2c1=O | 922

SMILES | RP-LC retention time [s]
Cc1ccc(S(=O)(=O)N2CCCC(Cn3c(C)nc4cccnc43)C2)cc1 (centres undefined) | 707
CCc1nc2cc(-c3noc(-c4ccc(F)cc4)n3)ccc2o1 | 1190
O=C(c1cc(F)ccc1Cl)N1CCN(C(=O)c2nnn3c2COC(c2ccccc2)C3)CC1 (centres undefined) | 894
CC(C)Oc1ccccc1CN1CC[C@@H]2CN(S(C)(=O)=O)[C@@H]2C1 | 638
O=C(Nc1ccccc1F)N1CCCC1c1nc(-c2cccc(Cl)c2)no1 (centres undefined) | 1060
O=C(Nc1ccc2c(c1)CC(C(=O)NCCCc1ccccc1)CO2)c1cccs1 (centres undefined) | 900
CN(C)c1nn(CC(=O)Nc2ccc(F)cc2Cl)c(=O)c2ccccc12 | 913
CC(C)n1c(=O)c(Nc2cccc(Cl)c2)nc2ccncc21 | 649
O=C(c1nnc(-c2ccc(S(=O)(=O)N3CCCCC3)cc2)o1)N1CCc2ccccc2C1 | 1080
CC1CCc2[nH]nc(C(N)=O)c2C1 (centres undefined) | 614
COc1ccc(S(=O)(=O)N2CCCC(c3nnnn3C)C2)cc1 (centres undefined) | 744
CCOC(=O)c1ccc2ncc(C(=O)OCC)c(NCCN(C)C)c2c1 | 569
O=C(NC1CCN(c2cc(-c3ccc(Cl)cc3)[nH]n2)C1)c1cccc(Br)c1 (centres undefined) | 870
COC(=O)c1cc2c(=O)n(-c3nc4ccc(OC)cc4s3)ccc2nc1C | 1160
Cc1cc(C(=O)Nc2nc(-c3ccc(Cl)cc3)c(C)s2)no1 | 1110
Cc1ccc(CN2C(=O)NC3(CCN(C(=O)c4cccs4)CC3)C2=O)cc1 | 820
Cc1cnc(C)n1CC1CCN(S(=O)(=O)Cc2ccccc2)C1 (centres undefined) | 618
CC(C)C(=O)Nc1ccc(C(=O)Nc2nc(-c3ccccc3)cs2)cc1 | 949
Cc1cc(C)n2nc(SCC(=O)NCCC(C)C)nc2n1 | 690
COc1ccc(NC(=O)c2nc(C)oc2C)cc1F | 843
CCc1cc(C2CCCN2C(=O)Nc2ccccc2C)on1 (centres undefined) | 780
CSc1ccc(CNC(=O)C2CCN(c3nnc(-c4ccc(C)cc4)o3)CC2)cc1 | 931
Cc1cccc(NC(=O)C23CCC=C2N(C2CCCC2)C(=O)CC3)c1 (centres undefined) | 952

SMILES | RP-LC retention time [s]
COc1cccc(NS(=O)(=O)c2ccc(-c3c(C)noc3C)cc2)c1 | 884
Cn1c(=O)c2ccn(CC(=O)Nc3ccc(F)cc3Cl)c2n(C)c1=O | 695
COc1ccc(S(=O)(=O)N2CCCC(C(=O)Nc3c(F)cccc3F)C2)cc1OC (centres undefined) | 818
O=C(NOCC1CC1)c1cc(Br)c(F)c(F)c1Nc1ccc(I)cc1Cl | 1170
COc1cccc(-c2noc(Cn3ccn(-c4cc(C)cc(C)c4)c(=O)c3=O)n2)c1OC | 870
COc1ccc(-c2nnc(-c3ccc(C)c(S(N)(=O)=O)c3)o2)cc1OC | 731
COc1ccc(Cl)cc1NC(=O)C(C)Oc1cc(C(F)(F)F)c2c(C)nn(C)c2n1 (centres undefined) | 1200
COc1cccc(C(=O)NCC(C)(O)C2CC2)c1OC (centres undefined) | 669
CCOC(=O)c1cn(Cc2ccccc2C)c2nc(C)ccc2c1=O | 909
Cc1cc(C(=O)N2CCCCC2)c2c(=O)n(Cc3nc(-c4cccs4)oc3C)c(=O)n(C)c2n1 | 955
COc1cccc2c1cc1c(=O)n(CC(=O)N3CCN(c4ccccn4)CC3)nc(C)n12 | 591
Cn1nc(C(=O)Nc2ccccc2)c2c1CCN(C(=O)NCc1ccco1)C2 | 760
Cn1nc(-c2nc(-c3ccc(F)cc3)no2)c2c1CCN(C(=O)C1CCCO1)C2 (centres undefined) | 789
O=C(NCc1ccc(F)cc1)N1CCCC(Cn2c(C3CC3)nc3cccnc32)C1 (centres undefined) | 669
CNC(=O)C1CC(=O)N(c2cccc(C)c2)C1 (centres undefined) | 637
COc1ccc(-c2nnc(-c3ccc(-n4ccnc4)nc3)o2)c(OC)c1 | 630
CN1C(=O)c2cccn2CC1C(=O)NCC1CC1 (centres undefined) | 608
O=C(Cc1ccsc1)N1CCC2(CC1)N=C(c1ccc(Cl)cc1)NO2 | 865
Cc1cc(C)cc(N2CCC(NC(=O)Nc3cccc(C)c3C)C2=O)c1 (centres undefined) | 922
CC(C)CNC(=O)c1ccc(CN2CCN(Cc3ccccc3)C(=O)C2=O)cc1 | 721
Cc1cc(=O)n(CC(=O)N2CCOCC2)c(N2CCOCC2)n1 | 534
CC(C)CN1CCN(S(=O)(=O)c2cc(-c3nnc(C4CC4)o3)co2)CC1 | 622
CCCN1CCO[C@@H]2c3cc(O)ccc3OC[C@H]21 | 645

SMILES | RP-LC retention time [s]
CC(=O)Nc1ccc(S(=O)(=O)N2CCN(c3cc(C)c4ccccc4n3)CC2)cc1 | 632
O=S(=O)(CCc1noc(-c2ccc3c(c2)OCO3)n1)c1ccc(Cl)cc1 | 979
CCc1cccc(N2C(=O)c3c(C(=O)OC)ncn3CC2(C)C(=O)NC2CCCC2)c1 (centres undefined) | 615
CCn1c(=O)c(N2CCC(NC(=O)NCc3ccccc3)CC2)nc2cccnc21 | 826
Cc1ccc(Cl)c(Nc2ccccc2C(=O)O)c1Cl | 1050
O=C(Cn1cnc2nc(N3CCC(C(=O)NC4CC4)CC3)sc2c1=O)NC1CCc2ccccc21 (centres undefined) | 670
CCCn1c(CCNC(=O)c2cc(F)ccc2F)nc2cccnc21 | 673
COc1ccc(-c2nnc(N3CCC(C(=O)N4CCOCC4)CC3)o2)cc1 | 664
Cc1ccc(-c2ccc(-n3nc(C)c(S(=O)(=O)N4CCOCC4)c3C)nn2)cc1 | 972
Cc1cc(N2CCN(S(=O)(=O)c3cccc(Cl)c3)CC2)nc(NC2CCCCC2)n1 | 844
O=C(NCc1ccccc1)C1CCN(S(=O)(=O)c2ccc3[nH]c(=O)ccc3c2)CC1 | 683
CN1c2cc(Cl)ccc2C(=O)NC12CCN(C(=O)NCc1ccccc1)CC2 | 795
CCCNC(=O)C1CCCN(c2ccc(SCC(=O)Nc3c(F)cccc3F)nn2)C1 (centres undefined) | 628
CCCCSc1cc(C)nc(N)n1 | 698
Cn1nccc1C(=O)N1CCN(S(=O)(=O)c2ccc3c(c2)oc(=O)n3C)CC1 | 679
Cc1noc(-c2ccnc(-n3ncc(C(=O)N4CCCCC4)c3C)c2)n1 | 841
Cc1noc(C)c1C(=O)N1CCCC1Cc1noc(C2CCCC2)n1 (centres undefined) | 820
Cc1nc([C@@H]2CN(Cc3ccc(Br)o3)C[C@H]2C(N)=O)n[nH]1 | 556
O=C(Cn1c(=O)cc(-c2nc(C3CC3)no2)c2ccccc21)NC1CCCCC1 | 932
Cc1cccn2cc(-c3cccc(S(=O)(=O)N4CC(C)CC(C)C4)c3)nc12 (centres undefined) | 828

Source: the METLIN SMRT retention time set (Domingo-Almenara et al. 2019)
